The results in this text go back to PMC12686049 (2025).

The test system of assay [1] is A2-G (DNA, G4) GGGTGGGGGTGATAAACGGGGCATCAGGGACACATTGCTGGGTCGGGTCGT
Kind of assay: CD titration at 295 nm, Hill fit. As to conditions: 100 mM KCl; 10 mM sodium cacodylate, pH 7.0, 25 °C; 10 µM DNA; apparent, half-maximal ellipticity change; Hill coefficient 2.8 ± 1.5.

Assay [2] relates to A1-G (DNA, G4) CCGGGAGGAATCATGTAAGGGGTCCCGGGAACGGGCAAGGGGCTTTTCACC
Kind of assay: CD titration at 295 nm, Hill fit. As to conditions: 100 mM KCl; 10 mM sodium cacodylate, pH 7.0, 25 °C; 10 µM DNA; apparent, half-maximal ellipticity change; Hill coefficient 2.1 ± 0.9.

The subject of assay [3] is Telomere (DNA, G4) TTAGGGTTAGGGTTAGGGTTAGGGTT
The assay is described as follows: thioflavin T fluorescence. As to conditions: 100 mM KCl; 10 mM sodium cacodylate, pH 7.4; 4 µM DNA, 1 µM dye; background without DNA 1154.

Assay [4] deals with hscA (DNA, G4) GGGGCTGAATTGGGGGGGAAAACGAGACGGG
The assay is described as follows: thioflavin T fluorescence. As to conditions: 100 mM KCl; 10 mM sodium cacodylate, pH 7.4; 4 µM DNA, 1 µM dye; background without DNA 1154.

For assay [5], the system named is yap1 (DNA, G4) GGGATGGGCTTCCCAAGTCGGGGAGAGGG
Kind of assay: thioflavin T fluorescence. As to conditions: 100 mM KCl; 10 mM sodium cacodylate, pH 7.4; 4 µM DNA, 1 µM dye; background without DNA 1154.

Assay [6] concerns ags1 (DNA, G4) GGGCTTGAGGGGAACTGGGAGGAGCGGG
Kind of assay: thioflavin T fluorescence. As to conditions: 100 mM KCl; 10 mM sodium cacodylate, pH 7.4; 4 µM DNA, 1 µM dye; background without DNA 1154.

Assay [7] has as its system cyp51B (DNA, G4) GGGGTAGGGGGGCCCAGGG
The assay is described as follows: thioflavin T fluorescence. As to conditions: 100 mM KCl; 10 mM sodium cacodylate, pH 7.4; 4 µM DNA, 1 µM dye; background without DNA 1154.

Assay [8] concerns ftmC (DNA, G4) GGGTCTGGAGCGCGGGGTTCGGGGATCGGG
The assay is described as follows: thioflavin T fluorescence. As to conditions: 100 mM KCl; 10 mM sodium cacodylate, pH 7.4; 4 µM DNA, 1 µM dye; background without DNA 1154.

In assay [9] the test system is pes1 (DNA, G4) GGGAGCAAGGGGAAATCGCTGAGGGTGGG
Kind of assay: thioflavin T fluorescence. As to conditions: 100 mM KCl; 10 mM sodium cacodylate, pH 7.4; 4 µM DNA, 1 µM dye; background without DNA 1154.

Assay [10] concerns gstA (DNA, G4) GGGCTGGGTGGCGGCCGCTGGTTGGGCGGG
The assay is described as follows: thioflavin T fluorescence. As to conditions: 100 mM KCl; 10 mM sodium cacodylate, pH 7.4; 4 µM DNA, 1 µM dye; background without DNA 1154.

Assay [11] relates to dppV (DNA, G4) GGGACGGCGTTGGGGGGGGGAAGGG
Kind of assay: thioflavin T fluorescence. As to conditions: 100 mM KCl; 10 mM sodium cacodylate, pH 7.4; 4 µM DNA, 1 µM dye; background without DNA 1154.

Assay [12] relates to hmg1 (DNA, G4) GGGCGGCAGGGACAGGGGCAACTTCGGG
Kind of assay: thioflavin T fluorescence. As to conditions: 100 mM KCl; 10 mM sodium cacodylate, pH 7.4; 4 µM DNA, 1 µM dye; background without DNA 1154.

The test system of assay [13] is zrfC (DNA, G4) GGGTTGGGCTGGTCGACATGTGGGCCCGGG
Kind of assay: thioflavin T fluorescence. As to conditions: 100 mM KCl; 10 mM sodium cacodylate, pH 7.4; 4 µM DNA, 1 µM dye; background without DNA 1154.

Assay [14] relates to arp2 (DNA, G4) GGGGAGGGGACCCTTGCATGGAGGGGGGG
Kind of assay: thioflavin T fluorescence. As to conditions: 100 mM KCl; 10 mM sodium cacodylate, pH 7.4; 4 µM DNA, 1 µM dye; background without DNA 1154.

For assay [15], the system named is erg5 (DNA, G4) GGGATTAGGGTATGCCTCAGGGTCATGGG
The assay is described as follows: thioflavin T fluorescence. As to conditions: 100 mM KCl; 10 mM sodium cacodylate, pH 7.4; 4 µM DNA, 1 µM dye; background without DNA 1154.

For assay [16], the system named is laeA (DNA, G4) GGGATGTGGGACAGGGATTTGGG
The assay is described as follows: thioflavin T fluorescence. As to conditions: 100 mM KCl; 10 mM sodium cacodylate, pH 7.4; 4 µM DNA, 1 µM dye; background without DNA 1154.

Assay [17] has as its system ste7 (DNA, G4) GGGAGGGACACAAAGAGGGGATAAGGAGGG
The assay is described as follows: thioflavin T fluorescence. As to conditions: 100 mM KCl; 10 mM sodium cacodylate, pH 7.4; 4 µM DNA, 1 µM dye; background without DNA 1154.

For assay [18], the system named is B DNA (DNA, single strand) GGCGCTATTCTCTGGTGCTGCT
The assay is described as follows: thioflavin T fluorescence. As to conditions: 100 mM KCl; 10 mM sodium cacodylate, pH 7.4; 4 µM DNA, 1 µM dye; background without DNA 1154.

The test system of assay [19] is atrF (DNA, G4) GGGTATTTGTTTGGGGGGATGGG
Kind of assay: thioflavin T fluorescence. As to conditions: 100 mM KCl; 10 mM sodium cacodylate, pH 7.4; 4 µM DNA, 1 µM dye; background without DNA 1154.

The subject of assay [20] is skn7 (DNA, single strand) GGGGGGGGGGTGGG
The assay is described as follows: thioflavin T fluorescence. As to conditions: 100 mM KCl; 10 mM sodium cacodylate, pH 7.4; 4 µM DNA, 1 µM dye; background without DNA 1154.

The subject of assay [21] is aspf28 (DNA, G4) GGGTTGCGAGGGAAGGAGGGGCGGG
Kind of assay: thioflavin T fluorescence. As to conditions: 100 mM KCl; 10 mM sodium cacodylate, pH 7.4; 4 µM DNA, 1 µM dye; background without DNA 1154.

The subject of assay [22] is aspf2 (DNA, G4) GGGGACGGGGGAGGTAGGGAGGG
The assay is described as follows: thioflavin T fluorescence. As to conditions: 100 mM KCl; 10 mM sodium cacodylate, pH 7.4; 4 µM DNA, 1 µM dye; background without DNA 1154.

In assay [23] the test system is zafA (DNA, G4) GGGCAGGGCAGAGCAGGGCAGGGG
Kind of assay: thioflavin T fluorescence. As to conditions: 100 mM KCl; 10 mM sodium cacodylate, pH 7.4; 4 µM DNA, 1 µM dye; background without DNA 1154.

Assay [24] deals with erg1 (DNA, G4) GGGCGACGGGGAAGAGGTAGGGAGGG
Kind of assay: thioflavin T fluorescence. As to conditions: 100 mM KCl; 10 mM sodium cacodylate, pH 7.4; 4 µM DNA, 1 µM dye; background without DNA 1154.

Assay [25] relates to pkaC1 (DNA, G4) GGGTTGTGGTGGGTGGAGGGATGGGG
The assay is described as follows: thioflavin T fluorescence. As to conditions: 100 mM KCl; 10 mM sodium cacodylate, pH 7.4; 4 µM DNA, 1 µM dye; background without DNA 1154.

For assay [26], the system named is bck1 (DNA, G4) GGGCCTGGAGGGGGGCCCGGGG
Kind of assay: thioflavin T fluorescence. As to conditions: 100 mM KCl; 10 mM sodium cacodylate, pH 7.4; 4 µM DNA, 1 µM dye; background without DNA 1154.

Assay [27] deals with chsG (DNA, G4) GGAGAGCGGGAGGTGGTGAGGG
The assay is described as follows: thioflavin T fluorescence. As to conditions: 100 mM KCl; 10 mM sodium cacodylate, pH 7.4; 4 µM DNA, 1 µM dye; background without DNA 1154.

The subject of assay [28] is lysF (DNA, G4) GGGACGCGGGGGGCGGCATCGGGAGCGGG
The assay is described as follows: thioflavin T fluorescence. As to conditions: 100 mM KCl; 10 mM sodium cacodylate, pH 7.4; 4 µM DNA, 1 µM dye; background without DNA 1154.

The test system of assay [29] is mp1 (DNA, single strand) GGCTCCGGCTCCGGCTCCGG
Kind of assay: thioflavin T fluorescence. As to conditions: 100 mM KCl; 10 mM sodium cacodylate, pH 7.4; 4 µM DNA, 1 µM dye; background without DNA 1154.

Assay [30] relates to ftmE (DNA, G4) GGGAGTGGGGATGGCGACGGGGAGCAGGG
The assay is described as follows: thioflavin T fluorescence. As to conditions: 100 mM KCl; 10 mM sodium cacodylate, pH 7.4; 4 µM DNA, 1 µM dye; background without DNA 1154.

Assay [31] deals with cyp51A (DNA, G4) GGGTGGGGGTGATAAACGGGGCATCAGGG
Kind of assay: thioflavin T fluorescence. As to conditions: 100 mM KCl; 10 mM sodium cacodylate, pH 7.4; 4 µM DNA, 1 µM dye; background without DNA 1154.

Assay [32] relates to atrR (DNA, G4) GGGGGAGGGTGCGGGATGCTCTTCGGG
The assay is described as follows: thioflavin T fluorescence. As to conditions: 100 mM KCl; 10 mM sodium cacodylate, pH 7.4; 4 µM DNA, 1 µM dye; background without DNA 1154.

The subject of assay [33] is gliN (DNA, G4) GGGGGGCGCTTGGCTGGGAAGGCGGTTGGG
Kind of assay: thioflavin T fluorescence. As to conditions: 100 mM KCl; 10 mM sodium cacodylate, pH 7.4; 4 µM DNA, 1 µM dye; background without DNA 1154.

In assay [34] the test system is rodA (DNA, G4) GGGGTAGGGAACAGGGTCCCGGG
The assay is described as follows: thioflavin T fluorescence. As to conditions: 100 mM KCl; 10 mM sodium cacodylate, pH 7.4; 4 µM DNA, 1 µM dye; background without DNA 1154.

Assay [35] concerns abcB (DNA, G4) GGGGGTGGGCGTTGGGGCGGG
The assay is described as follows: thioflavin T fluorescence. As to conditions: 100 mM KCl; 10 mM sodium cacodylate, pH 7.4; 4 µM DNA, 1 µM dye; background without DNA 1154.

Assay [36] has as its system fks1 (DNA, G4) GGAAGGGGCTCGGGCATGGG
The assay is described as follows: thioflavin T fluorescence. As to conditions: 100 mM KCl; 10 mM sodium cacodylate, pH 7.4; 4 µM DNA, 1 µM dye; background without DNA 1154.

With `C[n+]1cc(NC(=O)c2ccc3ccc4ccc(C(=O)Nc5cc6ccccc6[n+](C)c5)nc4c3n2)cc2ccccc21`, the K in assay [1] stood at 32.5 ± 1.8 µM; in assay [2], 32.7 ± 3.3 µM.

On to `Cc1ccc2c(c1)sc(-c1ccc(N(C)C)cc1)[n+]2C`, for which the Fluorescence is listed as 100,859 ± 19 a.u in assay [3]; 56,161 ± 21 a.u in assay [4]; 69,030 ± 18 a.u in assay [5]; 67,230 ± 34 a.u in assay [6]; 34,409 ± 10 a.u in assay [7]; 66,613 ± 9 a.u in assay [8]. Further, the Fluorescence in [9] is 129,161 ± 40 a.u; in assay [10], 56,709 ± 4 a.u; in assay [11] it was 47,933 ± 12 a.u; in [12] it was 148,303 ± 33 a.u; in assay [13] it was 81,452 ± 19 a.u; in assay [14] it was 82,140 ± 54 a.u. Moreover, the Fluorescence in assay [15] is 149,474 ± 14 a.u; in assay [16], 50,899 ± 9 a.u; in [17], 126,709 ± 54 a.u; in assay [18], 8808 ± 6 a.u; in assay [19] it was 64,599 ± 9 a.u; in assay [20] it was 7173 ± 6 a.u. The Fluorescence was 71,548 ± 13 a.u in assay [21]; 87,449 ± 40 a.u in [22]; 26,023 ± 6 a.u in assay [23]; 71,126 ± 17 a.u in assay [24]; 62,347 ± 4 a.u in [25]; 73,174 ± 7 a.u in assay [26]. Besides, the Fluorescence in assay [27] was 38,112 ± 15 a.u; in assay [28], 86,442 ± 9 a.u; in assay [29], 9852 ± 22 a.u; in assay [30], 105,384 ± 10 a.u; in assay [31], 62,145 ± 13 a.u; in assay [32] it was 37,691 ± 7 a.u. Besides, the Fluorescence in assay [33] is 134,267 ± 16 a.u; in [34] it was 50,100 ± 17 a.u; in assay [35] it was 28,763 ± 5 a.u; in assay [36], 72,302 ± 9 a.u.
